Data on nine compounds can be found in patent US20040014942A1, “Mutant strains capable of producing chemically diversified proteins by incorporation of non-conventional amino acids” (priority 2000, published 2004).

For experiment [1], the system named is strain β5366 (wild-type valS allele). The experiment is described as follows: Sensitivity to non-canonical amino acids, growth inhibition zone on Petri dishes. It is filed as cell-based, E. coli. The following applies: 100 mM solution in central well. The method, then: (1) 100 mM L-2-amino-butyrate
(2) 100 mM L-2-amino-valerate
(3) 100 mM L-2-3-diamino-propionate

Experiment [2] has as its system strain β5366 (thyA:Val146). In words: Growth over a cysteine diffusion gradient. Format: cell-based, E. coli. An excerpt: (§1) The plasmid pTS1 thus obtained propagates the allele thyA:Val146, in which the position 146 occupied in the wild-type thyA gene by the codon UGC of cysteine is occupied by the codon GUA of valine. The plasmid pTS1 is introduced by transformation, carried out according to the method of Sambrook and coll. (1989), in the strain ΔthyA of E. coli K12, β1308 (Lemeignan and coll., 1993), whereof the chromosome gene of the thymidylate synthase, thyA, is deleted. […] Thus, everything happens as if the cysteine could infiltrate the active site of the valyl-tRNA synthetase to form erroneous Cys-tRNA^val's capable of correcting the replacement of cysteine by valine in the active site of the thymidylate synthase. The excess valine would prevent the formation of these erroneous Cys-tRNA^val's.

In the next experiment the test system is strain β1308 (ΔthyA). The experiment is described as follows: Growth over a cysteine diffusion gradient. It is filed as cell-based, E. coli. Conditions: same conditions.
Excerpt: as §1

Experiment [3] concerns twelve clones from serial propagation of β5366. In words: Growth factor test of clones after serial culture. It is filed as cell-based, E. coli. Conditions: glucose mineral MS medium dishes. As to the method:
The cells are then washed twice with deoxygenated mineral MS medium. A deoxygenated nutritive medium containing 10 ml glucose mineral MS medium to which 1.5 mM cysteine is added is inoculated at 1/100 using washed cells. The cells are then cultivated in anaerobiosis for 24 hours at 30° C. and a fresh tube containing 10 ml deoxygenated cysteine glucose mineral MS medium is inoculated with a 1/100 dilution of the culture at the preceding stationary phase. This procedure is repeated 26 times. At the end of this serial propagation, 12 clones from the liquid culture are isolated on dishes of thymidine (0.3 mM) glucose mineral MS medium (2 g/l) in aerobiosis and kept in suspension in the same liquid medium at −80° C. The twelve clones are tested on dishes containing glucose mineral MS medium with nutritional factors added.

The next experiment has as its system adapted strain β8146. The experiment is described as follows: Phenotypic suppression by metabolic precursors of cysteine. It is filed as cell-based, E. coli. The following applies: 3 mM (L-thiazolidine4-carboxylate acid 2 mM), instead of thymidine or thymine. An excerpt: (§2) The nutritional requirement for cysteine of the adapted strains β8144 and β8146 is utilised to characterise metabolic precursors which can replace cysteine in the culture medium without giving rise to degradation by oxidation. […] However, the addition of none of these substances allows the growth of the strain β1308 leading to chromosomal deletion of the gene thyA of thymidylate synthase, thus excluding their contamination by traces of thymine or thymidine.

The test system of a further experiment is adapted strain β8144. The experiment is described as above. Conditions: 3 mM (L-thiazolidine4-carboxylate acid 2 mM), instead of thymidine or thymine. Format: cell-based, E. coli.
Excerpt: as §2

The test system of another experiment is strain β5455. The experiment is described as follows: Growth with S-carbamyl-L-cysteine without thymine or thymidine. Format: cell-based, E. coli. Conditions: 3 mM S-carbamyl-L-cysteine. An excerpt:
A lysate of the phage P1 harvested from such a clone is used to transduce the strain β5366 carrying the plasmidic allele thyA:Val146. […] The other half of the transducers are incapable of this, and require thymine or thymidine to proliferate, just like the strain β5366. This proportion of the phenotypes is in accordance with the genetic distance between the loci valS and nrdD (0.4 mn). Thus, suppression of the false-sense mutation of thyA Cys->Val by a low concentration of exogenous cysteine could result from an alteration of the gene of valyl-tRNA synthetase. […] An A changed into a C causes replacement of the threonine at position 222 by proline, thus confirming the fixation of a genetic alteration in the gene valS of the strain β5455.

Experiment [4] concerns strains β5479, β5485 and β5486. The experiment is described as follows: Phenotype of new valS mutants from mutator strain. It is filed as cell-based, Escherichia coli. From the text:
Three of these clones served to prepare lysates of the phage P1, which were used to transduce the strain β5366, by selecting for resistance to kanamycin, following the procedure of Example 5. […] The locus valS of the three strains β5479, β5485 and β5486, each corresponding to an SCC-suppressible transducer obtained from one of the three lysates was amplified by PCR and sequenced as described in Example 3. A different localised mutation was found for each of the three strains, viz. Arg 223 changed into His in the strain β5479, Val 276 changed into Ala in the strain β5485 and Asp 230 changed into Asn in the strain β5486.

In experiment [5] the test system is strain β5419 with mutator allele dnaQ::miniTn10. In words: Selection on solid medium with S-carbamyl-L-cysteine. Format: cell-based, E. coli. Conditions: dishes 0 to 8 mM, without thymidine, 96 hours at 30°, mutator allele only. An excerpt: The strain β5366 carrying the false-sense allele thyA:Val146 on the plasmid pTS1 is transduced with a lysate of the phage P1 harvested on an auxiliary strain of E. coli (β7170, Bouzon et al., 1997) in the chromosome of which a marker of resistance to kanamycin had been introduced at the locus nrdD, neighbour of the locus valS of the gene of valyl-tRNA synthetase, thus producing the strain β5419. A mutator allele of the gene dnaQ is introduced extemporaneously by transduction of the strain β5419 using a lysate of the phage P1 harvested on an auxiliary strain (MS2131, Shapiro, 1990) carrying a marker of resistance to the tetracycline dnaQ::miniTn10. […] After 24 hours, the cells are harvested, and washed twice in an identical volume of culture medium without thymidine. A volume of 0.1 ml of the resultant suspension, corresponding to approximately 10^8 bacteria, is spread on the surface of a series of Petri dishes containing a concentration of S-carbamyl-L-cysteine varying between 0 and 8 mM by adding 1 mM increments of the glucose mineral MS medium (2 g/l). The same procedure is applied to the non-mutator strain β5419, and to the wild-type gene dnaQ. All the Petri dishes are incubated for 96 hours at 30°. […]

In experiment [6] the test system is strain β5274 (thyA:Ile146). The experiment is described as follows: Phenotypic suppression by cysteine. It is filed as cell-based, E. coli. The following applies: 0.1 mM isoleucine. The method, then: The plasmid pTS2 thus obtained propagates the allele thyA:Ile146, in which the position 146 occupied in the wild-type thyA gene by the codon UGC of cysteine is occupied by the codon AUA of isoleucine. The strain propagating the plasmidic allele thyA:Ile146, […], proves to require the nutritional addition of thymine, thymidine or cysteine in excess, as in the case of the strain β5366. Phenotypic suppression of the strain β5274 by cysteine is abolished by 0.1 mM isoleucine, just as that of the strain β5366 is abolished by valine. Thus everything happens as if the isoleucyl-tRNA synthetase was capable of forming erroneous Cys-tRNA^Ile's in the presence of an excess of cysteine, and this erroneous formation was prevented by the presence of an excess of isoleucine.

With `NC[C@H](N)C(=O)O` [L-2-3-diamino-propionate], the effect on growth entry in [1] was “without effect”.
Turning to `CCC[C@H](N)C(=O)O` [L-2-amino-valerate], the effect on growth entry in experiment [1] was “without effect”.
On to `N[C@@H](CS)C(=O)O` [L-cysteine], for which the “growth over a cysteine diffusion gradient” value in experiment [2] (30° C., glucose mineral MS medium, central well 0.1 ml of 400 mM L-cysteine) is listed as “marginal growth”; with strain β1308 (ΔthyA) it was “does not give rise to any detectable growth”. The “cysteine concentration in culture medium replacing thymine or thymidine as growth factor” value in [3] is recorded as “at least 1.5 mM”.
Regarding `O=C(O)[C@@H]1CSCN1` [L-thiazolidine4-carboxylate acid], the “replacing cysteine as a growth factor” value in the experiment with adapted strain β8146 and in the experiment with adapted strain β8144 was “capable of replacing cysteine as a growth factor” each time.
Regarding `NC(=O)SC[C@H](N)C(=O)O` [S-carbamyl-L-cysteine], the “growth in the absence of thymine or thymidine” value in the experiment on strain β5455 is recorded as “capable of growing”. Also, the “growth in glucose mineral solid medium without thymidine” value in [4] (3 mM SCC, approximately half the transducers) was “capable of growing”. Moreover, the “concentration of S-carbamyl-L-cysteine at which colonies appear” value in experiment [5] is recorded as “exceeding 2 mM”. For the same compound, the “replacing cysteine as a growth factor” value in the experiment with adapted strain β8146 and with adapted strain β8144 was “capable of replacing cysteine as a growth factor” throughout.
Turning to `CSC[C@H](N)C(=O)O` [S-methyl-L-cysteine], the “replacing cysteine as a growth factor” value with adapted strain β8146 and in the experiment with adapted strain β8144 was “capable of replacing cysteine as a growth factor” in each case.
Take `CC[C@H](C)[C@H](N)C(=O)O` [isoleucine]: in [6], the “effect on phenotypic suppression by cysteine” value is reported as “abolished”.
Regarding `CC(C)[C@H](N)C(=O)O` [valine], the “effect on growth over a cysteine gradient” value in experiment [2] (0.1 mM valine added to Petri dish medium) is “abolishes the growth”.
In the case of L-2-amino-butyrate, the sensitivity to amino-butyrate result in experiment [4] (clones suppressing false-sense mutant Cys 146 Val of thyA) was “shows sensitivity”. Besides, in experiment [1], the effect on growth result is reported as “without effect”.
